In publication PMC10854894, “A New Benzo[6,7]oxepino[3,2-b] Pyridine Derivative Induces Apoptosis in Canine Mammary Cancer Cell Lines” (Animals : an Open Access Journal from MDPI, 2024):

Key:
Assay type in all cases: cell-based, canine
[1] = system: CMGT071020 cells; experiment: Relative mRNA expression by qRT-PCR
Experimental: (§1) After the treatment of the cells with MPOBA at varying concentrations from 0 to 200 µM for 48 h, the total RNA was isolated using a GeneJet RNA Purification kit (Thermo Fisher Scientific, Waltham, MA, USA) according to the manufacturer’s protocol for adherent tissue culture cells using the spin-column method. The RNA’s concentration and purity (A260/A280 ratio) were spectrophotometrically determined using a NanoDrop One/OneC Microvolume UV-Vis Spectrophotometer (Thermo Fisher Scientific, Waltham, MA, USA). To remove genomic DNA contamination, the samples were treated with RQ1 RNase-Free DNase (Promega, Madison, WI, USA) according to the manufacturer’s instructions. First-strand cDNA was obtained using a SuperScript® III First-Strand Synthesis kit for reverse-transcription polymerase chain reaction (RT-PCR) (Invitrogen, Carlsbad, CA, USA) according to the manufacturer’s protocol. Briefly, total RNA (1 μg), oligo (dT) primers (50 µM), a dNTP mix (10 mM), the cDNA synthesis mix, and nuclease-free water were added to obtain a final volume of 20 µL. PCR amplification was performed using a G-Storm GS482 PCR thermal cycler (Gene Technologies, Somerset, UK) with the following reaction profile: 65 °C for 5 min, 50 °C for 50 min, 85 °C for 5 min, and 37 °C for 5 min. The relative mRNA expression levels of canine SNAIL, SLUG, TWIST, E-cadherin, N-cadherin, TP53, EGFR, BAX, and BCL-2 were normalized to canine glyceraldehyde 3-phosphate dehydrogenase (GAPDH). The relative mRNA expression levels were calculated using the 2^–∆∆ Cq method. The transcriptional levels of all genes were determined in four replicates via qRT-PCR using a CFX 96 Touch real-time PCR detection system (Bio-Rad, Hercules, CA, USA). The qRT-PCR was performed using a reaction mixture containing 2 μL of the cDNA template, 10 μL of the iTaq Universal SYBR Green Supermix (Bio-Rad, Hercules, CA, USA), and 1 μL of each primer. The qRT-PCR protocol for the SNAIL, SLUG, TWIST, EGFR, TP53, BAX, BCL-2, and GAPDH genes was carried out as follows: initial denaturation at 94 °C for 3 min, denaturation at 94 °C for 15 s, annealing at 60 °C for 30 s, and extension at 72 °C for 1 min (40 cycles), and dissociation curves were generated between 65 °C and 95 °C to assess the specificity of the amplicons. The qRT-PCR protocol for E-cadherin and N-cadherin was carried out according to Yu et al..

[2] = system: REM134 cells; experiment: Relative mRNA expression by qRT-PCR
Experimental: as §1

[3] = system: CMGT071020 cells; experiment: Immunohistochemistry of vimentin and cytokeratin, Allred score; conditions: CMGT071020, 0-200 µM, 48 h, treatment vs control
Experimental: The cells were cultured in a T-25 cell culture flask (SPL life science, Gyeonggi-do, Republic of Korea) at a density of 2 × 10^5 cells/well and allowed to incubate for 24 h until they reached 60–70% confluence. They were subsequently treated with MPOBA at varying concentrations from 0 to 200 µM for 48 h. After treatment, cells were harvested using TrypLE and subjected to centrifugation at 1200 rpm for 5 min to obtain cell pellets. Then, the supernatant was replaced with 10% formalin, and the cell pellets were fixed overnight. The fixed cell pellets were embedded in paraffin blocks and sectioned with a thickness of 3 μm. These slide sections were then subjected to the deparaffinization and rehydration processes. For antigen retrieval, a heat-induced method was adopted, utilizing a vegetable steamer in a citrate buffer (pH = 6) at 90–100 °C for 45 min, followed by a cooling period of 30 min. After these preparatory steps, slides were mounted on cover plates within a Sequenza slide rack (Thermo Scientific, Waltham, MA, USA), void of air bubbles, and filled with Tris-buffered saline (TBS) (pH = 7.6). The immunohistochemical detection employed a Novolink™ Polymer Detection Kit (Leica Biosystems, Newcastle, UK) according to the manufacturer’s instructions. This began with the inhibition of endogenous peroxidase activity with a 150 μL peroxidase block at room temperature for 5 min, followed by washing with TBS three times for 3 min each. Subsequently, a 150 μL protein block was applied, incubated for 5 min, and washed three times with TBS for 3 min. Primary antibodies, including a vimentin (VT) mouse anti-human monoclonal antibody (Clone V9, ready-to-use kit, Leica Biosystems, Newcastle, UK) and a multi-cytokeratin (CK) mouse antibody (Clone AE1/AE3, ready-to-use kit, Leica Biosystems, Newcastle, UK), were incubated at 37 °C for 1 h. […]
A quantitative evaluation of the stained slides was performed utilizing the Allred scoring method and QuPath bioimaging software version 0.4.4 [48] to mitigate potential biases. […] The positive cells were systematically detected using the “positive cell detection” command in the analyze menu. The Allred score was calculated according to the quantity of marked cells and the intensity of the staining, as shown in Table S1. […] The scores and criteria used to quantify the labeled cells were 0, no labeling; 1, labeling in <1% of cells; 2, labeling in 1–10% of cells; 3, labeling in 11–33% of cells; 4, labeling in 34–66% of cells; and 5, labeling in 67–100% of cells. […] The staining intensity was determined visually. The sum of these criteria for each sample determined the final score.

[4] = CMGT071020, 200 µM, 48 h, vs control
[5] = REM134, 200 µM, 48 h, vs control
[6] = REM134, 48 h, treated vs untreated

Question: With `Cc1ncccc1Oc1ccccc1C=O` [MPOBA, 2-((2-methylpyridin-3-yl)oxy)benzaldehyde] as the molecule, how does the “BAX mRNA expression level” value [1, 4] read?
Answer: dramatically increased

Question: And the “BCL-2 mRNA expression level” value [1, 4]?
Answer: significantly decreased

Question: What about the “TP53 mRNA expression level” value [1, 4] of the same molecule?
Answer: significantly increased

Question: What about the “TWIST mRNA expression level” value ([1]; CMGT071020, 48 h, treated vs untreated) of the same molecule?
Answer: not significantly different

Question: And the “E-cadherin mRNA expression level” value ([1]; CMGT071020, 48 h, vs control)?
Answer: upregulation

Question: And the “EGFR mRNA expression level” value ([1]; CMGT071020, 48 h, vs control)?
Answer: significantly decreased

Question: And the “N-cadherin mRNA expression level” value ([1]; CMGT071020, 48 h, vs control)?
Answer: significant downregulation

Question: What about the “SLUG mRNA expression level” value ([1]; CMGT071020, 48 h, vs control) of the same molecule?
Answer: significant downregulation

Question: And the “SNAIL mRNA expression level” value ([1]; CMGT071020, 48 h, vs control)?
Answer: significant downregulation

Question: What about the “BAX mRNA expression level” value [2, 5] of the same molecule?
Answer: dramatically increased

Question: And the “BCL-2 mRNA expression level” value [2, 5]?
Answer: significantly decreased

Question: What about the “TP53 mRNA expression level” value [2, 5] of the same molecule?
Answer: significantly increased

Question: And the “SLUG mRNA expression level” value [2, 6]?
Answer: not significantly different

Question: And the “TWIST mRNA expression level” value [2, 6]?
Answer: not significantly different

Question: And the “E-cadherin mRNA expression level” value ([2]; REM134, 48 h, vs control)?
Answer: upregulation

Question: What about the “EGFR mRNA expression level” value ([2]; REM134, 48 h, vs control) of the same molecule?
Answer: significantly decreased

Question: What about the “N-cadherin mRNA expression level” value ([2]; REM134, 48 h, vs control) of the same molecule?
Answer: significant downregulation

Question: What about the “SNAIL mRNA expression level” value ([2]; REM134, 48 h, vs control) of the same molecule?
Answer: significant downregulation

Question: And the “cytokeratin (CK) expression, Allred score” value [3]?
Answer: no statistically significant difference

Question: What about the “vimentin (VT) expression, Allred score” value [3] of the same molecule?
Answer: no statistically significant difference
